The subject of one assay is rodent GSK3β homologs. To be noted: cited from earlier work.
For a further assay, the system named is iPS cells. The experiment in a line: Differentiation of iPS cells into FOXA2+/LMX1+ cells or dopamine neurons. It is filed as cell-based, human. The conditions noted are these: increased concentrations, e.g. 2 μM as compared to 0.2 μM. The text has this:
Disclosed is an in vitro method for preparing a cell composition comprising modified human cells that express both forkhead box protein A2 (FOXA2) and LIM homeobox transcription factor 1 (LMX1) (FOXA2^+/LMX1^+ cells) comprising culturing modified human pluripotent cells in the presence of the following signaling modulators: (a) a single inhibitor of Small Mothers Against Decapentaplegic (SMAD) signaling, (b) at least one activator of Sonic hedgehog (SHH) signaling, and (c) at least one activator of wingless (Wnt) signaling; and culturing said cells in the presence of said modulators for a period of time sufficient to provide a cell composition comprising said FOXA2^+/LMX1^+ cells. In some preferred embodiments, the LMX1 is LIM homeobox transcription factor 1 alpha (LMX1A). In some embodiments, the inhibitor of SMAD signaling is a BMP inhibitor such as, […]., at a concentration of from about 0.2 μM to about 4 μM, more preferably greater than 0.2 μM to about 4 μM, about 1 μM, 2 μM, 3 μM, 4 μM, or any range derivable therein), dorsomorphin, DMH-1, or noggin. […] In some embodiments, the BMP inhibitor is LDN-193189. The SMAD signaling inhibitor may be a TGFβ inhibitor (a TGFβ signaling pathway inhibitor) such as, for example, SB431542 (e.g., SB431542 present at a concentration of about 5-100, 20-60, 30-50 μM, or about 40 μM). […]

The next assay has as its target Ago (Homo sapiens, UniProt Q9UKV8). To be noted: cited from earlier work.

Chain of Ago (Q9UKV8 whole entry): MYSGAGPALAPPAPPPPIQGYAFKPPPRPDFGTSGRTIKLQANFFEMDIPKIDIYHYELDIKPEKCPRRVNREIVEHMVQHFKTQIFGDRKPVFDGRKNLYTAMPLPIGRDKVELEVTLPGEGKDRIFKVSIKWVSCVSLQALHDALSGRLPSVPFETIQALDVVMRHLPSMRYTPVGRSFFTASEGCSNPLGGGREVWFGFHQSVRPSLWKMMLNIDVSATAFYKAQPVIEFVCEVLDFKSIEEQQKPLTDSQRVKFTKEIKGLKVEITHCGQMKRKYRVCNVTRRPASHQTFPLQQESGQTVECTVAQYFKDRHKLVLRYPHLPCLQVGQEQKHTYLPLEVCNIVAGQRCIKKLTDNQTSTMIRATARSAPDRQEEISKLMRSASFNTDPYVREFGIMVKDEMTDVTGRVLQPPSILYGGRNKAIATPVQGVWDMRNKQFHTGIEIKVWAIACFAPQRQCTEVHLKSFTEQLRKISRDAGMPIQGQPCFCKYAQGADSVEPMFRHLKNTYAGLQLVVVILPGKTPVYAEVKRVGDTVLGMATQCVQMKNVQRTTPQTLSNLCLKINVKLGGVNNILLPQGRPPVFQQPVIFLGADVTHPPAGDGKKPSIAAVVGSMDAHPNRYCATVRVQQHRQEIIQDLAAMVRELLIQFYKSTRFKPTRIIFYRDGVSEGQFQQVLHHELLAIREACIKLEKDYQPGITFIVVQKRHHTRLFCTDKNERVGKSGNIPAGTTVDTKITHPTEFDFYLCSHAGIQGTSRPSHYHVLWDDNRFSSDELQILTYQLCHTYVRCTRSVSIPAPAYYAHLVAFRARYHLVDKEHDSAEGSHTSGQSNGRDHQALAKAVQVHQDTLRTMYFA

Turning to `Cc1c[nH]c(-c2cnc(NCCNc3ccc(C#N)cn3)nc2-c2ccc(Cl)cc2Cl)n1` [CHIR99021, 6-(2-(4-(2,4-dichlorophenyl)-5-(4-methyl-1H-imidazol-2-yl)pyrimidin-2-ylamino)ethylamino) nicotinonitrile], the “IC50 values against rodent GSK3β homologs” value with rodent GSK3β homologs is given as “nanomolar”.

Regarding `c1ccc2c(-c3cnn4cc(-c5ccc(N6CCNCC6)cc5)cnc34)ccnc2c1` [LDN-193189, 4-(6-(4-(piperazin-1-yl)phenyl)pyrazolo[1,5-a]pyrimidin-3-yl) quinoline], the “differentiation of iPS cells into FOXA2+/LMX1+ cells or dopamine neurons” value with iPS cells is recorded as “improved differentiation”.

On to UUAAUGCUAAUCGUGAUAGGGGUU [miR-155-5p], for which the “Ago binding affinity of 5′ terminal UMP relative to the CMP nucleotide on the 5′ terminus of the miR-155-3p strand” value at Ago is recorded as “approximately 20 times”.

The values are drawn from patent US20260216250A1, “Compositions and Methods for Treating a Neurologic Disease Using Dopaminergic Neurons with Enhanced Anti-inflammatory Activity” (Kenai Therapeutics Inc., priority 2023, published 2026).
